The target of the experiment is ADAM17 (Homo sapiens, UniProt P78536). As to the kind of experiment: fluorogenic peptide. Format: biochemical.

SMILES strings stand for the structures.

This note sets out measurements from publication PMC8689681 (The Journal of Experimental Medicine, 2021).

Broadly, the IC50 is the concentration that gives 50% inhibition. Low values mean inhibition by little substance, high ones a need for much substance.

Sequence of ADAM17 (P78536 215-474 limits assumed): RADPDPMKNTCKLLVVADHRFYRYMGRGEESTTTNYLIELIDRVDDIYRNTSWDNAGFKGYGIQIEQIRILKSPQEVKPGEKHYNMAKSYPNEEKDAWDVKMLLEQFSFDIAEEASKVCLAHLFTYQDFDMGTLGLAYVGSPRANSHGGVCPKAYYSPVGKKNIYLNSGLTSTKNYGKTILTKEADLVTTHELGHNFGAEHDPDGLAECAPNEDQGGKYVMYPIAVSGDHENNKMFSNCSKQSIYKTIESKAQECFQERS

With `CC(C)C[C@H](CC(=O)NO)C(=O)N[C@@H](Cc1ccc2ccccc2c1)C(=O)N[C@@H](C)C(=O)NCCN` [TAPI-1], the IC50 was determined as 128 ± 0.9 nM.
